Tests used:
HvNTR2 [1] = target: T1, HvNTR2 (Hordeum vulgare, UniProt A9LN30); assay: bleaching of yellow HvNTR2 crystals (FAD reduction); type: biochemical; conditions: 10 mM NADPH, 30 min, in crystals; NADPH not seen in the structure
T1 construct: gene NTR2; recombinant, E. coli Rosetta (DE3); FAD domain 1-126 and 255-331, NADPH domain 127-254; model residues 6-323 (A), 5-323 (B); homodimer

HvNTR2 [2] = target: T1, HvNTR2; assay: X-ray crystal structure, […] A; type: binding; conditions: crystals pH 3.5, 0.1 M citrate; one FAD per subunit in FAD domain, tightly bound

T1 sequence (A9LN30 1-331): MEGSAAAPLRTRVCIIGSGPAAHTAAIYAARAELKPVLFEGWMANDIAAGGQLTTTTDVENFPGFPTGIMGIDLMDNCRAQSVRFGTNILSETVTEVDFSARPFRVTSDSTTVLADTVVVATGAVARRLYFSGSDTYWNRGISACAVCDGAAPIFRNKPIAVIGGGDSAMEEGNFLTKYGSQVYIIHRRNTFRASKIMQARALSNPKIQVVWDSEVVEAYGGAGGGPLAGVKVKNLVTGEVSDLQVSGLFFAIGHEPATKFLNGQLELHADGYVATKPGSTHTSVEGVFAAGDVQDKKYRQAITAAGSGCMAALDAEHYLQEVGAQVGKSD

SMILES | bleaching of yellow HvNTR2 crystals (FAD reduction) (HvNTR2 [1]) | X-ray crystal structure, 2.6 A (HvNTR2 [2])
NC(=O)C1=CN([C@@H]2O[C@H](COP(=O)(O)OP(=O)(O)OC[C@H]3O[C@@H](n4cnc5c(N)ncnc54)[C@H](OP(=O)(O)O)[C@@H]3O)[C@@H](O)[C@H]2O)C=CC1 [NADPH] | FAD can still be reduced by NADPH as judged from the bleaching | –
Cc1cc2nc3c(=O)[nH]c(=O)nc-3n(C[C@H](O)[C@H](O)[C@H](O)COP(=O)(O)OP(=O)(O)OC[C@H]3O[C@@H](n4cnc5c(N)ncnc54)[C@H](O)[C@@H]3O)c2cc1C [FAD] | – | One FAD molecule with well defined electron density

Source: paper PMC2733882, “Structure of Hordeum vulgare NADPH-dependent thioredoxin reductase 2. Unwinding the reaction mechanism” (Acta Crystallographica Section D: Biological Crystallography, 2009)
